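Interpolation was linear, between the two tested concentrations surrounding the appropriate level; five concentrations were tested over 48 hours in 96-well plates. Definition used: TGI = concentration required for complete inhibition of growth.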
Assays:
Test in all cases: NCI tumour cell line growth inhibition, 48 h
[1] = test system: HOP-62 NSCLC
[2] = test system: 786-0 renal
[3] = test system: KM12 colon
[4] = test system: ACHN renal
[5] = test system: HT29 colon
[6] = test system: HCT-15 colon
[7] = test system: SNB-78 CNS
[8] = test system: SK-MEL-2 melanoma
[9] = test system: SF-295 CNS
[10] = test system: OVCAR-4 ovarian
[11] = test system: HCT-116 colon
[12] = test system: XF 498 CNS
[13] = test system: SW-620 colon
[14] = test system: LXFL 529 NSCLC
[15] = test system: SR leukemia
[16] = test system: DLD-1 colon
[17] = test system: TK-10 renal
[18] = test system: EKVX NSCLC
[19] = test system: SF-268 CNS
[20] = test system: M14 melanoma
[21] = test system: NCI-H460 lung
[22] = test system: NCI-H23 lung
[23] = test system: K-562 leukemia
[24] = test system: MALME-3M melanoma
[25] = test system: SF-539 CNS
[26] = test system: IGROV1 ovarian
[27] = test system: SK-OV-3 ovarian
[28] = test system: A549 NSCLC
[29] = test system: LOX IMVI melanoma
[30] = test system: SNB-75 CNS
[31] = test system: HL-60(TB) leukemia
[32] = test system: RXF 393 renal
[33] = test system: OVCAR-5 ovarian
[34] = test system: NCI-H522 lung
[35] = test system: SNB-19 CNS
[36] = test system: M19-MEL melanoma
[37] = test system: CCRF-CEM leukemia
[38] = test system: OVCAR-3 ovarian
[39] = test system: COLO 205 colon
[40] = test system: SK-MEL-5 melanoma
[41] = test system: RPMI-8226 leukemia
[42] = test system: CAKI-1 renal
[43] = test system: HOP-92 NSCLC
[44] = test system: U251 CNS
[45] = test system: NCI-H226 lung
[46] = test system: SN12C renal
[47] = test system: SK-MEL-28 melanoma
[48] = test system: OVCAR-8 ovarian
[49] = test system: MOLT-4 leukemia
[50] = test system: DMS 273 small cell lung
[51] = test system: HOP-18 NSCLC
[52] = test system: UACC-62 melanoma
[53] = test system: UO-31 renal
[54] = test system: HCC-2998 colon
[55] = test system: UACC-257 melanoma
[56] = test system: DMS 114 small cell lung
[57] = test system: KM20L2 colon
[58] = test system: A498 renal

Measured: TGI

Clc1ccccc1C1SCc2nc3ccccc3n21 (stereo not given)
11.3 µM: [30]
56.3 µM: [11]
31.3 µM: [43]
82.7 µM: [27]
54.8 µM: [44]
59.6 µM: [15]
79.4 µM: [33]
88 µM: [2]
53.6 µM: [7]
70.6 µM: [45]
76.4 µM: [47]
51.8 µM: [46]
59.9 µM: [20]
53.4 µM: [24]
60.5 µM: [32]
71.6 µM: [17]
> 100 µM: [3] | [4] | [5] | [6] | [9] | [10] | [13] | [14] | [16] | [19] | [21] | [22] | [23] | [25] | [26] | [28] | [36] | [37] | [39] | [41] | [42] | [48] | [49]
81.8 µM: [29]
29.5 µM: [38]
81.9 µM: [18]
49.5 µM: [34]
40.6 µM: [35]
87.2 µM: [12]
64.6 µM: [1]
33.7 µM: [40]
57.1 µM: [8]
42.3 µM: [31]

C[C@]12CCc3nn(-c4ccccc4)nc3C1CC[C@@H]1C2CC[C@]2(C)C(=O)CCC12 (stereo not given in full)
> 100 µM: [1] | [2] | [3] | [4] | [5] | [6] | [7] | [8] | [9] | [10] | [50] | [11] | [13] | [14] | [51] | [15] | [52] | [16] | [17] | [53] | [18] | [19] | [54] | [20] | [21] | [22] | [23] | [24] | [25] | [26] | [27] | [28] | [29] | [30] | [31] | [32] | [33] | [34] | [35] | [36] | [37] | [38] | [39] | [40] | [41] | [42] | [43] | [55] | [56] | [44] | [45] | [46] | [47] | [48] | [57] | [49]

O=c1n(CC2CS2)c2ccccc2n1CC1CS1 (stereo not given)
74.4 µM: [24]
79.7 µM: [37]
> 100 µM: [1] | [3] | [4] | [6] | [8] | [10] | [50] | [12] | [14] | [15] | [52] | [18] | [19] | [54] | [20] | [23] | [26] | [27] | [29] | [30] | [31] | [34] | [36] | [38] | [39] | [42] | [43] | [56] | [46]
69.1 µM: [49]
88.6 µM: [41]
70.1 µM: [11]

C/C(CCN(C)C)=N\OC(=O)c1ccccc1
8.9 µM: [51]
> 100 µM: [1] | [2] | [3] | [4] | [5] | [7] | [8] | [9] | [10] | [50] | [11] | [13] | [14] | [15] | [52] | [16] | [17] | [53] | [18] | [19] | [54] | [20] | [21] | [22] | [23] | [24] | [25] | [26] | [27] | [28] | [29] | [30] | [31] | [32] | [33] | [34] | [35] | [36] | [37] | [38] | [39] | [40] | [41] | [42] | [43] | [55] | [56] | [44] | [58] | [45] | [46] | [47] | [48] | [57] | [49]

Source: PubChem BioAssay (NCI)
